Series [1] deals with T1, CaV2.2 (Homo sapiens, UniProt Q00975). In words: cell-based.
The target of series [2] is T1, CaV2.2.
Series [3] can be described thus: in vitro. Particulars: simulated intestinal fluid, pH 6.8.

This is an account of results in publication PMC10952433, “A Chemoenzymatic Approach To Produce a Cyclic Analogue of the Analgesic Drug MVIIA (Ziconotide)” (Angewandte Chemie (International Ed. in English), 2023).

T1 sequence (Q00975 whole entry, looked up): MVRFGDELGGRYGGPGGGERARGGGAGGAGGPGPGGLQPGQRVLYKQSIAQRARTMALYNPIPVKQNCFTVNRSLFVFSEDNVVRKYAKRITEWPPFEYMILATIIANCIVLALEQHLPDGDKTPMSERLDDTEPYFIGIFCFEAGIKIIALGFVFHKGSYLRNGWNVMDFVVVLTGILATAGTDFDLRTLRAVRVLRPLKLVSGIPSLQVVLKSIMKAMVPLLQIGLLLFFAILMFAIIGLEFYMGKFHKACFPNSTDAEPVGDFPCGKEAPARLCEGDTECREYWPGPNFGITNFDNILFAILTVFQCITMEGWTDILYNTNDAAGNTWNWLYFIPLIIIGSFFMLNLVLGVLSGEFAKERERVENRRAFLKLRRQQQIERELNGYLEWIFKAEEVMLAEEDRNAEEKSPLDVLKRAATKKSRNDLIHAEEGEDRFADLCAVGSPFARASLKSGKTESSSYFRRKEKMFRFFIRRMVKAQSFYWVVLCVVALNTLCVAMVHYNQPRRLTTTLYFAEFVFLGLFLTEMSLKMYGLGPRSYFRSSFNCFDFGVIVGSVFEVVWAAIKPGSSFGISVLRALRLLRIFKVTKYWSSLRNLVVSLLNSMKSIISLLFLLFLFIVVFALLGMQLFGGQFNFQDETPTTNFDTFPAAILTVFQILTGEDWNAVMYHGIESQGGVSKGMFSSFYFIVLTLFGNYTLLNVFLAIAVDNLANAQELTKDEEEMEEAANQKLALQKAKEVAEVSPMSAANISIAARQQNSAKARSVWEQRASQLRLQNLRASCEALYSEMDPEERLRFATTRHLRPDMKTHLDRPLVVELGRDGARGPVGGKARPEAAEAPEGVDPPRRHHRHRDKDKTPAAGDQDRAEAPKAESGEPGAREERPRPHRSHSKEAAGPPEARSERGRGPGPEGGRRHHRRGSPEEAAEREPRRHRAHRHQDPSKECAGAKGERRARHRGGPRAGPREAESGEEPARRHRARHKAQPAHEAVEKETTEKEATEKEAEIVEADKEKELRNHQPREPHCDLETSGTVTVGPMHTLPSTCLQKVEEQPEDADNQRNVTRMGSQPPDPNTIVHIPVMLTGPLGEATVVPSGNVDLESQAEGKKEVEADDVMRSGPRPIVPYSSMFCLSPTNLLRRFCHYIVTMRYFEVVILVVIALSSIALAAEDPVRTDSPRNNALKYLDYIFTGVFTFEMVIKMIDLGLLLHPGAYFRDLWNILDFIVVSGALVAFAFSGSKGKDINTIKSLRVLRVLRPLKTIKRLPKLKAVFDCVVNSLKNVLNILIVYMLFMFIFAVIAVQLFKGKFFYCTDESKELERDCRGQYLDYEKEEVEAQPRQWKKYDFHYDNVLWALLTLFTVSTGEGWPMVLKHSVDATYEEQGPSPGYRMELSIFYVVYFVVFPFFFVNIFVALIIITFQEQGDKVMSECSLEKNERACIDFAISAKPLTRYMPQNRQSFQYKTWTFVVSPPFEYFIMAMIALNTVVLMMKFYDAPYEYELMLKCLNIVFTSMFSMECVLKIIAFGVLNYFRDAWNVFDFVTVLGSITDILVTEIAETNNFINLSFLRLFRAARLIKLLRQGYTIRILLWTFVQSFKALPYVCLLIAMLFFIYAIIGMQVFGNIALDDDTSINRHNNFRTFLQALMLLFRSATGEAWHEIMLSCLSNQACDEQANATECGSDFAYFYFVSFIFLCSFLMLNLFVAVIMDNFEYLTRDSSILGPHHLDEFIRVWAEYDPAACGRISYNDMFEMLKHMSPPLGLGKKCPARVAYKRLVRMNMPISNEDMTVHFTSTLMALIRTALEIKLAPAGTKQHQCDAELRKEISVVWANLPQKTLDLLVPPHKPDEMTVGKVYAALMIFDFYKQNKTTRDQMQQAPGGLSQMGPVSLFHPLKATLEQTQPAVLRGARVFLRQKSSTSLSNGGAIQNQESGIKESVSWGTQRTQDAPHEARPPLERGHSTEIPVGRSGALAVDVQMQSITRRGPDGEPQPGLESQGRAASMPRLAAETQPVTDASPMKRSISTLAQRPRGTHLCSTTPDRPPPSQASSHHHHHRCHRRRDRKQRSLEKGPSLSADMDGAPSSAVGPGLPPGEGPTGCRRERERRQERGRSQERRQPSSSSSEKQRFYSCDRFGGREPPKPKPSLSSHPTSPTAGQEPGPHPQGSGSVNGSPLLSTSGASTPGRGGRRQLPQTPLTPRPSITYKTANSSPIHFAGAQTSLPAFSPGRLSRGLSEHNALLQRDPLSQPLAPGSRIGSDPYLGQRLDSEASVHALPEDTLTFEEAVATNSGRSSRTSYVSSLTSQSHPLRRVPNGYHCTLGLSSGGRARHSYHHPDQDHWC

Usually EC50 stands for the midpoint of the concentration-response curve. The low end stands for an effect from little substance, the high end for a need for much substance. As a reminder, the IC50 is the point on the concentration scale where inhibition reaches its midpoint. Lower therefore signals higher potency. Turning to `CCCC[C@@H]1NC(=O)[C@H](CC(C)C)NC(=O)[C@H](CCCNC(=N)N)NC(=O)[C@H](CO)NC(=O)[C@@H]2CSSC[C@@H]3NC(=O)[C@H](CO)NC(=O)CNC(=O)[C@H]([C@@H](C)O)NC(=O)[C@H](CSSC[C@H](N)C(=O)N[C@@H](CCCCN)C(=O)NCC(=O)N[C@@H](CCCCN)C(=O)NCC(=O)N[C@@H](C)C(=O)N[C@@H](CCCCN)C(=O)N2)NC(=O)[C@H](CSSC[C@@H](C(N)=O)NC(=O)[C@H](CCCCN)NC(=O)CNC(=O)[C@H](CO)NC(=O)[C@H](CCCNC(=N)N)NC3=O)NC(=O)[C@H](CC(=O)O)NC(=O)[C@H](Cc2ccc(O)cc2)NC1=O` [M-2], in series [1], it took 0.1 nM to reach a half-maximal effect (EC50) and the IC50 amounted to 0.1 nM. In series [2], the LogEC50 is recorded as -9.9.

As to `CSCC[C@@H]1NC(=O)[C@H](CC(C)C)NC(=O)[C@H](CCCNC(=N)N)NC(=O)[C@H](CO)NC(=O)[C@@H]2CSSC[C@@H]3NC(=O)[C@H](CO)NC(=O)CNC(=O)[C@H]([C@@H](C)O)NC(=O)[C@H](CSSC[C@H](N)C(=O)N[C@@H](CCCCN)C(=O)NCC(=O)N[C@@H](CCCCN)C(=O)NCC(=O)N[C@@H](C)C(=O)N[C@@H](CCCCN)C(=O)N2)NC(=O)[C@H](CSSC[C@@H](C(=O)O)NC(=O)[C@H](CCCCN)NC(=O)CNC(=O)[C@H](CO)NC(=O)[C@H](CCCNC(=N)N)NC3=O)NC(=O)[C@H](CC(=O)O)NC(=O)[C@H](Cc2ccc(O)cc2)NC1=O` [M-3], in series [1], a half-maximal effect (EC50) was put at 1.7 nM and the IC50 was found to be 1.7 ± 1.2 nM. The compound also gave a LogEC50 in series [2] of -8.8.

As for `CCCC[C@@H]1NC(=O)[C@H](CC(C)C)NC(=O)[C@H](CCCNC(=N)N)NC(=O)[C@H](CO)NC(=O)[C@@H]2CSSC[C@@H]3NC(=O)[C@H](CO)NC(=O)CNC(=O)[C@H]([C@@H](C)O)NC(=O)[C@@H]4CSSC[C@H](NC(=O)[C@H](C)NC(=O)CNC(=O)CNC(=O)[C@H](CC(N)=O)NC(=O)CNC(=O)[C@H](C)NC(=O)[C@H](CSSC[C@H](NC(=O)[C@H](CC(=O)O)NC(=O)[C@H](Cc5ccc(O)cc5)NC1=O)C(=O)N4)NC(=O)[C@H](CCCCN)NC(=O)CNC(=O)[C@H](CO)NC(=O)[C@H](CCCNC(=N)N)NC3=O)C(=O)N[C@@H](CCCCN)C(=O)NCC(=O)N[C@@H](CCCCN)C(=O)NCC(=O)N[C@@H](C)C(=O)N[C@@H](CCCCN)C(=O)N2` [cM-6], in series [1], a half-maximal effect (EC50) was put at 43.2 nM and the IC50 is 43.2 ± 1.4 nM. In series [2], this compound came in with a LogEC50 of -7.4.

One may read the half-life as the time needed for the level to fall by half in the phase considered. A low value points to rapid decline. A word on the fraction remaining: it is what is left of the initial amount, in per cent. In the case of `CCCC[C@@H]1NC(=O)[C@H](CC(C)C)NC(=O)[C@H](CCCNC(=N)N)NC(=O)[C@H](CO)NC(=O)[C@@H]2CSSC[C@@H]3NC(=O)[C@H](CO)NC(=O)CNC(=O)[C@H]([C@@H](C)O)NC(=O)[C@@H]4CSSC[C@H](NC(=O)[C@H](C)NC(=O)[C@H](C)NC(=O)CNC(=O)CNC(=O)[C@H](CC(N)=O)NC(=O)CNC(=O)[C@H](C)NC(=O)[C@H](CSSC[C@H](NC(=O)[C@H](CC(=O)O)NC(=O)[C@H](Cc5ccc(O)cc5)NC1=O)C(=O)N4)NC(=O)[C@H](CCCCN)NC(=O)CNC(=O)[C@H](CO)NC(=O)[C@H](CCCNC(=N)N)NC3=O)C(=O)N[C@@H](CCCCN)C(=O)NCC(=O)N[C@@H](CCCCN)C(=O)NCC(=O)N[C@@H](C)C(=O)N[C@@H](CCCCN)C(=O)N2` [cM-7], in series [1], the midpoint of the response, the EC50, lay at 13.5 nM and the IC50 amounted to 13.5 ± 1.2 nM. In series [3], this compound returned a half-life of 43 min and an amount remaining at 1 h of approximately 38%. The same compound came in with a LogEC50 in series [2] of -7.8.

In series [1], `CCCC[C@@H]1NC(=O)[C@H](CC(C)C)NC(=O)[C@H](CCCNC(=N)N)NC(=O)[C@H](CO)NC(=O)[C@@H]2CSSC[C@@H]3NC(=O)[C@H](CO)NC(=O)CNC(=O)[C@H]([C@@H](C)O)NC(=O)[C@@H]4CSSC[C@H](NC(=O)[C@H](C)NC(=O)[C@H](C)NC(=O)CNC(=O)CNC(=O)[C@H](CC(N)=O)NC(=O)CNC(=O)CNC(=O)[C@H](C)NC(=O)[C@H](CSSC[C@H](NC(=O)[C@H](CC(=O)O)NC(=O)[C@H](Cc5ccc(O)cc5)NC1=O)C(=O)N4)NC(=O)[C@H](CCCCN)NC(=O)CNC(=O)[C@H](CO)NC(=O)[C@H](CCCNC(=N)N)NC3=O)C(=O)N[C@@H](CCCCN)C(=O)NCC(=O)N[C@@H](CCCCN)C(=O)NCC(=O)N[C@@H](C)C(=O)N[C@@H](CCCCN)C(=O)N2` [cM-8] had an EC50 of 21.8 nM and a half-maximal inhibitory concentration (IC50) of 21.8 ± 1.2 nM. Moreover, in series [2], the LogEC50 is recorded as -7.6.

In series [1], `CCCC[C@@H]1NC(=O)[C@H](CC(C)C)NC(=O)[C@H](CCCNC(=N)N)NC(=O)[C@H](CO)NC(=O)[C@@H]2CSSC[C@@H]3NC(=O)[C@H](CO)NC(=O)CNC(=O)[C@H]([C@@H](C)O)NC(=O)[C@@H]4CSSC[C@H](NC(=O)[C@H](C)NC(=O)[C@H](C)NC(=O)CNC(=O)CNC(=O)[C@H](CC(N)=O)NC(=O)CNC(=O)CNC(=O)[C@H](C)NC(=O)[C@H](C)NC(=O)[C@H](CSSC[C@H](NC(=O)[C@H](CC(=O)O)NC(=O)[C@H](Cc5ccc(O)cc5)NC1=O)C(=O)N4)NC(=O)[C@H](CCCCN)NC(=O)CNC(=O)[C@H](CO)NC(=O)[C@H](CCCNC(=N)N)NC3=O)C(=O)N[C@@H](CCCCN)C(=O)NCC(=O)N[C@@H](CCCCN)C(=O)NCC(=O)N[C@@H](C)C(=O)N[C@@H](CCCCN)C(=O)N2` [cM-9] registered an EC50 of 307 nM and an IC50 of 306.6 ± 1.5 nM. For the same compound, the LogEC50 in series [2] is recorded as -6.4.
